According to US7368578B2, “Five-membered heterocyclic compounds” (Takeda Pharmaceutical Company Limited, priority 2002, dated 2008):

| melting point [°C] | SMILES |
| --- | --- |
| 149 to 150 | CCOC(=O)/C=C/c1cn(CC)nc1OCc1ccc(OCc2nc(-c3ccco3)oc2C)c(OC)c1 [Example 168, ethyl (2E)-3-{1-ethyl-3-[(4-{[2-(2-furyl)-5-methyl-1,3-oxazol-4-yl]methoxy}-3-methoxybenzyl)oxy]-1H-pyrazol-4-yl}-2-propenoate] |
| 117 to 118 | CCOC(=O)c1cn(C)nc1OCc1ccc(OCc2nc(-c3ccco3)oc2C)c(OC)c1 [Example 171, ethyl 3-[(4-{[2-(2-furyl)-5-methyl-1,3-oxazol-4-yl]methoxy}-3-methoxybenzyl)oxy]-1-methyl-1H-pyrazole-4-carboxylate] |
| 114 to 115 | CCOC(=O)c1cn(CC)nc1OCc1ccc(OCc2nc(-c3ccco3)oc2C)c(OC)c1 [Example 172, ethyl 1-ethyl-3-[(4-{[2-(2-furyl)-5-methyl-1,3-oxazol-4-yl]methoxy}-3-methoxybenzyl)oxy]-1H-pyrazole-4-carboxylate] |
| 120 to 122 | COc1cc(COc2nn(CCO)cc2CO)ccc1OCc1nc(-c2ccco2)oc1C [Example 176, 2-[3-[(4-{[2-(2-furyl)-5-methyl-1,3-oxazol-4-yl]methoxy}-3-methoxybenzyl)oxy]-4-(hydroxymethyl)-1H-pyrazol-1-yl]ethanol] |
| 155 to 156 | COc1cc(COc2nn(C)cc2C=O)ccc1OCc1nc(-c2ccco2)oc1C [Example 177, 3-[(4-{[2-(2-furyl)-5-methyl-1,3-oxazol-4-yl]methoxy}-3-methoxybenzyl)oxy]-1-methyl-1H-pyrazole-4-carbaldehyde] |
| 103 to 104 | CCn1cc(C=O)c(OCc2ccc(OCc3nc(-c4ccco4)oc3C)c(OC)c2)n1 [Example 178, 1-ethyl-3-[(4-{[2-(2-furyl)-5-methyl-1,3-oxazol-4-yl]methoxy}-3-methoxybenzyl)oxy]-1H-pyrazole-4-carbaldehyde] |
| 149 to 150 | COc1cc(COc2nn(CCO)cc2C=O)ccc1OCc1nc(-c2ccco2)oc1C [Example 179, 3-[(4-{[2-(2-furyl)-5-methyl-1,3-oxazol-4-yl]methoxy}-3-methoxybenzyl)oxy]-1-(2-hydroxyethyl)-1H-pyrazole-4-carbaldehyde] |
| 144 to 145 | COc1cc(COc2nn(-c3ccccc3)cc2/C=C/c2cncn2C)ccc1OCc1nc(-c2ccco2)oc1C [Example 181, 2-(2-furyl)-4-({2-methoxy-4-[({4-[(E)-2-(1-methyl-1H-imidazol-5-yl)ethenyl]-1-phenyl-1H-pyrazol-3-yl}oxy)methyl]phenoxy}methyl)-5-methyl-1,3-oxazole] |
| 130 to 132 | CCn1cncc1/C=C/c1cn(-c2ccccc2)nc1OCc1ccc(OCc2nc(-c3ccco3)oc2C)c(OC)c1 [Example 182, 4-({4-[({4-[(E)-2-(1-ethyl-1H-imidazol-5-yl)ethenyl]-1-phenyl-1H-pyrazol-3-yl}oxy)methyl]-2-methoxyphenoxy}methyl)-2-(2-furyl)-5-methyl-1,3-oxazole] |
| 129 to 131 | COc1cc(COc2nn(-c3ccccc3)cc2/C=C/C(N)=S)ccc1OCc1nc(-c2ccco2)oc1C [Example 184, (2E)-3-{3-[(4-{[2-(2-furyl)-5-methyl-1,3-oxazol-4-yl]methoxy}-3-methoxybenzyl)oxy]-1-phenyl-1H-pyrazol-4-yl}-2-propenethioamide] |
| 130 to 131 | COc1cc(COc2nn(-c3ccccc3)cc2/C=C/c2nc(C)cs2)ccc1OCc1nc(-c2ccco2)oc1C [Example 185, 2-(2-furyl)-4-({2-methoxy-4-[({4-[(E)-2-(4-methyl-1,3-thiazol-2-yl)ethenyl]-1-phenyl-1H-pyrazol-3-yl}oxy)methyl]phenoxy}methyl)-5-methyl-1,3-oxazole] |
| 156 to 157 | CCOC(=O)c1csc(/C=C/c2cn(-c3ccccc3)nc2OCc2ccc(OCc3nc(-c4ccco4)oc3C)c(OC)c2)n1 [Example 186, ethyl 2-((E)-2-{3-[(4-{[2-(2-furyl)-5-methyl-1,3-oxazol-4-yl]methoxy}-3-methoxybenzyl)oxy]-1-phenyl-1H-pyrazol-4-yl}ethenyl)-1,3-thiazole-4-carboxylate] |
| 170 to 172 | COc1cc(COc2nn(-c3ccccc3)cc2/C=C/c2nc(C(=O)O)cs2)ccc1OCc1nc(-c2ccco2)oc1C [Example 187, 2-((E)-2-{3-[(4-{[2-(2-furyl)-5-methyl-1,3-oxazol-4-yl]methoxy}-3-methoxybenzyl)oxy]-1-phenyl-1H-pyrazol-4-yl}ethenyl)-1,3-thiazole-4-carboxylic acid] |
| 165 to 166 | COc1cc(COc2nn(-c3ccccc3)cc2/C=C/c2nnc(C)[nH]2)ccc1OCc1nc(-c2ccco2)oc1C [Example 188, 3-((E)-2-{3-[(4-{[2-(2-furyl)-5-methyl-1,3-oxazol-4-yl]methoxy}-3-methoxybenzyl)oxy]-1-phenyl-1H-pyrazol-4-yl}ethenyl)-5-methyl-4H-1,2,4-triazole] |
| 221 to 222 | COc1cc(COc2nn(-c3ccccc3)cc2/C=C/C(=O)NNC(C)=O)ccc1OCc1nc(-c2ccco2)oc1C [Example 189, (2E)-N′-acetyl-3-{3-[(4-{[2-(2-furyl)-5-methyl-1,3-oxazol-4-yl]methoxy}-3-methoxybenzyl)oxy]-1-phenyl-1H-pyrazol-4-yl}-2-propenohydrazide] |
| 93 to 94 | CCc1nc(/C=C\c2cn(-c3ccccc3)nc2OCc2ccc(OCc3csc(N4CCCCC4)n3)c(OC)c2)cs1 [Example 193 (Z form), 1-[4-({4-[({4-[(Z)-2-(2-ethyl-1,3-thiazol-4-yl)ethenyl]-1-phenyl-1H-pyrazol-3-yl}oxy)methyl]-2-methoxyphenoxy}methyl)-1,3-thiazol-2-yl]piperidine] |
| 123 to 124 | COc1cc(COc2nn(-c3ccccc3)cc2C=O)ccc1OCc1csc(N2CCCCC2)n1 [Example 196, 3-({3-methoxy-4-[(2-piperidin-1-yl-1,3-thiazol-4-yl)methoxy]benzyl}oxy)-1-phenyl-1H-pyrazole-4-carbaldehyde] |
| 128 to 129 | COc1cc(COc2nn(-c3ccccc3)cc2C=O)ccc1OCc1csc(N2CCOCC2)n1 [Example 197, 3-({3-methoxy-4-[(2-morpholin-4-yl-1,3-thiazol-4-yl)methoxy]benzyl}oxy)-1-phenyl-1H-pyrazole-4-carbaldehyde] |
| 180 to 181 | COc1cc(COc2nn(-c3ccccc3)cc2C=O)ccc1OCc1nc(N2CCCCC2)sc1C [Example 198, 3-({3-methoxy-4-[(5-methyl-2-piperidin-1-yl-1,3-thiazol-4-yl)methoxy]benzyl}oxy)-1-phenyl-1H-pyrazole-4-carbaldehyde] |
| 131 to 132 | CCOC(=O)c1cn(Cc2cccnc2)nc1OCc1ccc(OCc2nc(-c3ccco3)oc2C)c(OC)c1 [Example 199, ethyl 3-[(4-{[2-(2-furyl)-5-methyl-1,3-oxazol-4-yl]methoxy}-3-methoxybenzyl)oxy]-1-(pyridin-3-ylmethyl)-1H-pyrazole-4-carboxylate] |
| 90 to 91 | COc1cc(COc2nn(Cc3cccnc3)cc2CO)ccc1OCc1nc(-c2ccco2)oc1C [Example 200, [3-[(4-{[2-(2-furyl)-5-methyl-1,3-oxazol-4-yl]methoxy}-3-methoxybenzyl)oxy]-1-(pyridin-3-ylmethyl)-1H-pyrazol-4-yl]methanol] |
| 134 to 135 | COC(=O)c1ccccc1-c1nc(COc2ccc(COc3nn(-c4ccccc4)cc3C=O)cc2OC)c(C)o1 [Example 207, methyl 2-{4-[(4-{[(4-formyl-1-phenyl-1H-pyrazol-3-yl)oxy]methyl}-2-methoxyphenoxy)methyl]-5-methyl-1,3-oxazol-2-yl}benzoate] |
| 164 to 165 | COC(=O)c1cccc(-c2nc(COc3ccc(CON4CC(C=O)=CN4c4ccccc4)cc3OC)c(C)o2)c1 [Example 208, methyl 3-{4-[(4-{[(4-formyl-1-phenyl-1H-pyrazol-2-yl)oxy]methyl}-2-methoxyphenoxy)methyl]-5-methyl-1,3-oxazol-2-yl}benzoate] |
| 190 to 191 | COC(=O)c1ccc(-c2nc(COc3ccc(COc4nn(-c5ccccc5)cc4C=O)cc3OC)c(C)o2)cc1 [Example 209, methyl 4-{4-[(4-{[(4-formyl-1-phenyl-1H-pyrazol-3-yl)oxy]methyl}-2-methoxyphenoxy)methyl]-5-methyl-1,3-oxazol-2-yl}benzoate] |
| 164 to 165 | COc1cc(COc2nn(-c3ccccc3)cc2C=O)ccc1OCc1nc(-c2ccccc2)sc1C [Example 213, 3-({3-methoxy-4-[(5-methyl-2-phenyl-1,3-thiazol-4-yl)methoxy]benzyl}oxy)-1-phenyl-1H-pyrazole-4-carbaldehyde] |
| 162 to 163 | COc1cc(COc2nn(-c3ccccc3)cc2C=O)ccc1OCc1coc(-c2ccco2)n1 [Example 218, 3-[(4-{[2-(2-furyl)-1,3-oxazol-4-yl]methoxy}-3-methoxybenzyl)oxy]-1-phenyl-1H-pyrazole-4-carbaldehyde] |
| 171 to 172 | COc1cc(COc2nn(-c3ccccc3)cc2C=O)ccc1OCc1sc(-c2ccccc2)nc1C [Example 219, 3-({3-methoxy-4-[(4-methyl-2-phenyl-1,3-thiazol-5-yl)methoxy]benzyl}oxy)-1-phenyl-1H-pyrazole-4-carbaldehyde] |
| 179 to 180 | COc1cc(COc2nn(-c3ccccc3)cc2C=O)ccc1OCc1cn(-c2ccccn2)nc1C [Example 220, 3-({3-methoxy-4-[(3-methyl-1-pyridin-2-yl-1H-pyrazol-4-yl)methoxy]benzyl}oxy)-1-phenyl-1H-pyrazole-4-carbaldehyde] |
| 126 to 127 | COc1cc(COc2nn(-c3ccccc3)cc2C=O)ccc1OCc1nc(-c2ccccc2)cn1C [Example 221, 3-({3-methoxy-4-[(1-methyl-4-phenyl-1H-imidazol-2-yl)methoxy]benzyl}oxy)-1-phenyl-1H-pyrazole-4-carbaldehyde] |
| 132 to 133 | CCc1nc(/C=C/c2cn(-c3ccccc3)nc2OCc2ccc(OCc3nc(-c4cccc(C(=O)OC)c4)oc3C)c(OC)c2)cs1 [Example 225 (E form), methyl 3-[4-({4-[({4-[(E)-2-(2-ethyl-1,3-thiazol-4-yl)ethenyl]-1-phenyl-1H-pyrazol-3-yl}oxy)methyl]-2-methoxyphenoxy}methyl)-5-methyl-1,3-oxazol-2-yl]benzoate] |
